Data set [1] deals with heart rate and mean arterial blood pressure. The experiment in a line: Urethane-anaesthetised rat, heart rate and arterial blood pressure. The note with it: for HR / HR, Average / MAP, Average: Fig6e.
From the text: Anaesthesia was induced in adult male Sprague–Dawley rats (230-330 g) with isofluorane (2–4%; Piramal Healthcare). The femoral vein was catheterised for drug delivery. Anaesthesia was maintained with urethane (1.2–1.7 g kg^−1; Sigma) in sterile saline delivered via the femoral vein catheter. […] The trachea was cannulated and the femoral artery catheterised, and both were connected to pressure transducers (Digitimer) to record respiratory airflow and arterial blood pressure, respectively. Blood pressure and airflow signals were amplified using the NeuroLog system (Digitimer) connected to a micro1401 interface and acquired on a computer using Spike2 software (v7.08a; Cambridge Electronic Design). […] Airflow measurements were used to calculate: tidal volume (VT; mL; pressure sensors were calibrated with a 3 mL syringe), and respiratory frequency (f; breaths min^−1; BrPM). Minute ventilation (VE; mL min^−1) was calculated as f × VT.
Cardiovascular and respiratory parameters were allowed to stabilise before experiments began. A1R agonists were administered by intravenous (IV) injection and the changes in HR, MAP, f, VT, and VE were measured. […] All injections were administered IV as a 350 µl·kg^-1 bolus.
In data set [2] the test system is respiration (f, VT, VE). The experiment in a line: Urethane-anaesthetised rat, respiration. The settings on record: Fig6e. On the procedure: The femoral vein was catheterised for drug delivery.
Adult male Sprague–Dawley rats (400-500 g) were anaesthetised with urethane and instrumented as described above, with the exception that the arterial cannulation was not performed.
Changes in f, VT, and VE were measured. If the dosing occurred close to a respiratory event such as a sigh a second IV dose was administered, with 20 min recovery periods either side of the injection.

Data set [3] has as its system neuropathic pain (paw withdrawal threshold). Briefly: Spinal nerve ligation (Chung model), mechanical allodynia, von Frey. The class given is in vivo, rat. On the procedure:
Adult male Sprague–Dawley rats, 7-8 weeks old, weighing around 250 g at the time of Chung model surgery, were purchased from Charles River UK Ltd. The animals were housed in groups of 4 in an air-conditioned room on a 12-hour light/dark cycle. Food and water were available ad libitum. They were allowed to acclimatise to the experimental environment for three days by leaving them on a raised metal mesh for at least 40 min. The baseline paw withdrawal threshold (PWT) was examined using a series of graduated von Frey hairs (see below) for 3 consecutive days before surgery and re-assessed on the 6th to 8th day after surgery and on the 13th to 17th day after surgery before drug dosing.
Prior to surgery each rat was anaesthetised with 3% isoflurane mixed with oxygen (2 L min^−1) followed by an intramuscular injection of ketamine (60 mg kg^−1) plus xylazine (10 mg kg^−1). The back was shaved and sterilised with povidone-iodine. The animal was placed in a prone position and a para-medial incision was made on the skin covering the L4-6 level. The L5 spinal nerve was carefully isolated and tightly ligated with 6/0 silk suture. The wound was then closed in layers after a complete haemostasis. A single-dose of antibiotics (Amoxipen, 15 mg/rat, intraperitoneally, IP) was routinely given for prevention of infection after surgery. The animals were placed in a temperature-controlled recovery chamber until fully awake before being returned to their home cages. The vehicle (normal saline or DMSO) was administered via the IV route at 1 ml·kg^−1 and via the intrathecal (IT) route at 10 µl for each injection. […] To test for mechanical allodynia the animals were placed in individual Perspex boxes on a raised metal mesh for at least 40 min before the test. Starting from the filament of lower force, each filament was applied perpendicularly to the centre of the ventral surface of the paw until slightly bent for 6 seconds. If the animal withdrew or lifted the paw upon stimulation, then a hair with force immediately lower than that tested was used. If no response was observed, then a hair with force immediately higher was tested. […] The animals were returned to their home cages to rest (about 30 min) between two neighbouring testing time points. At the end of each experiment, the animals were deeply anaesthetised with isoflurane and killed by decapitation.

Data set [4] is described as follows: Half-life determination in PBS. It counts as physicochemical. The note with it: for 1st / % Compound Remaining / 2nd / % Compound Remaining / Mean / % Compound Remaining: PBS, pH 7.4; for half-life: buffer, pH 7.4, PBS. On the procedure: […] Samples were analysed by HPLC-MS/MS and corresponding peak areas were recorded for each analyte. The ratio of precursor compound remaining after each time-point relative to the amount present at time 0, expressed as a percentage, is reported as chemical stability.

The subject of data set [5] is motor coordination. On the procedure:
On the day of the experiment, three baseline trials were recorded. The compound was administered IP (10 µg kg^−1, n = 6) or IV via tail vein injection (10 and 25 µg kg^−1, n = 6 per group). The control group received subcutaneous saline and the positive control group received subcutaneous morphine (15 mg kg^−1). Latency to fall (seconds) was measured in triplicate at 1, 2, 3 and 5 h post drug administration.

Where [6] appears, read: antagonist group, 1h after dosing.
[7] abbreviates: antagonist group, 2h after dosing.
Setting [8] is: antagonist group, 4h after dosing.
The mark [9] stands for this setting: incubation 0 minutes, UoBern01 at 1.00E-06 M.
[10] abbreviates: incubation 60 minutes, UoBern01 at 1.00E-06 M.
[11] abbreviates: incubation 120 minutes, UoBern01 at 1.00E-06 M.

Where “and” joins values, the source holds several entries; their conditions need not be identical. Identical values can stand only once. Like-named read-outs stand apart in the source and are kept apart here.

In the case of `Nc1ncnc2c1ncn2[C@@H]1O[C@H](CO)[C@@H](O)[C@H]1O` [ado], the heart rate in data set [1] (Fig5c, individual rat) was 179 and 147 and 138 and 122. For the same compound, in data set [1] (Fig5c, n 4), the “heart rate, Average” value was determined as 147. Moreover, the “mean arterial blood pressure” value in data set [1] (Fig5d, individual rat) is 56 and 36 and 42 and 48. Moreover, the “mean arterial blood pressure, Average” value in data set [1] (Fig5d, n 4) was found to be 46.

`OC[C@H]1O[C@@H](n2cnc3c(N[C@@H]4CCC[C@H]4OCc4ccccc4)ncnc32)[C@H](O)[C@@H]1O` [B]: the “Freq, Average” value is on record as 166.9 in data set [2] (dose group B 8, n 12); 189.3 in data set [2] (dose group B 17, n 4); 209.0 in data set [2] (dose group B 25, n 4). Moreover, the HR in data set [1] (dose group B 8, individual rat) is 406 and 368 and 425 and 416 and 331 and 340 and 420 and 470; in data set [1] (dose group B 17, individual rat) it was 369 and 385 and 301 and 313; in data set [1] (dose group B 25, individual rat), 362 and 382 and 312 and 305. Moreover, the “HR, Average” value came out at 397.0 in data set [1] (dose group B 8, n 8); 342.0 in data set [1] (dose group B 17, n 4); 340.3 in data set [1] (dose group B 25, n 4). Also, the “MAP, Average” value stood at 111.3 in data set [1] (dose group B 8, n 8); 115.8 in data set [1] (dose group B 17, n 4); 113.5 in data set [1] (dose group B 25, n 4).

As for `CCCn1c(=O)c2[nH]c(C3CCCC3)nc2n(CCC)c1=O` [DPCPX], in data set [3] (DPCPX 1 mg kg^−1 IP, BnOCPA 6 µg kg^−1 IV), the “effect on reversal of mechanical allodynia by BnOCPA” value is reported as “prevented the reversal of mechanical allodynia by BnOCPA”. Also, the “paw withdrawal threshold, Average (Fig7d)” value in data set [3] (setting [6]) was found to be 4.0; in data set [3] (setting [7]) it was 4.0; in data set [3] (setting [8]) it was 4.7. Also, the “paw withdrawal threshold, individual animals (Fig7d)” value in data set [3] (setting [6]) was 6 and 4 and 2; in data set [3] (setting [7]), 6 and 4 and 2; in data set [3] (setting [8]), 6 and 4 and 2.

On to `CCCOC(=O)c1c(-c2ccccc2)nc(CC)c(C(=O)SCC)c1CCC` [MRS1523], for which the “effect on analgesia caused by BnOCPA” value in data set [3] (MRS1523 2 mg kg^−1 IP, BnOCPA 6 µg kg^−1 IV) is listed as “had no effect on the analgesia caused by BnOCPA”. Moreover, the “paw withdrawal threshold, Average (Fig7d)” value in data set [3] (setting [6]) is listed as 13.6; in data set [3] (setting [7]), 14.0; in data set [3] (setting [8]), 12.2. Further, the “paw withdrawal threshold, individual animals (Fig7d)” value in data set [3] (setting [6]) was 15 and 8; in data set [3] (setting [7]), 15 and 10; in data set [3] (setting [8]), 15 and 10 and 6.

As for `OC[C@H]1O[C@@H](n2cnc3c(NC4CCCC4OCc4ccccc4)ncnc32)[C@H](O)[C@@H]1O` (some centres unmarked) [BnOCPAA], the “paw withdrawal threshold, individual animals (Fig7d)” value is given as 8 in data set [3] (6ug, 1h after dosing); 8 in data set [3] (6ug, 2h after dosing); 8 in data set [3] (6ug, 4h after dosing). The “paw withdrawal threshold, Average (Fig7d)” value in data set [3] (6ug, 1h after dosing, n 11) is listed as 9.8; in data set [3] (6ug, 2h after dosing, n 11) it was 12.6; in data set [3] (6ug, 4h after dosing, n 11) it was 9.8.

For the compound `O=C(O)CCCc1ccc(N(CCCl)CCCl)cc1` [Chlorambucil], the “1st / % Compound Remaining” value in data set [4] (setting [9]) came to 100%; in data set [4] (incubation 30 minutes), 68.5%; in data set [4] (setting [10]), 45.8%; in data set [4] (incubation 90 minutes), 27.3%; in data set [4] (setting [11]), 11%. The “2nd / % Compound Remaining” value in data set [4] (setting [9]) was 100%; in data set [4] (incubation 30 minutes), 81.3%; in data set [4] (setting [10]) it was 52.3%; in data set [4] (incubation 90 minutes), 31%; in data set [4] (setting [11]) it was “{17.7} %”. Further, the “Mean / % Compound Remaining” value in data set [4] (setting [9]) is given as 100%; in data set [4] (incubation 30 minutes), 74.9%; in data set [4] (setting [10]) it was 49.1%; in data set [4] (incubation 90 minutes) it was 29.2%; in data set [4] (setting [11]), 11%. Also, the half-life in data set [4] (UoBern01 at 1.00E-06 M, read-out: 1st / Half-Life) turned out to be 39 min; in data set [4] (UoBern01 at 1.00E-06 M, read-out: 2nd / Half-Life), 52.6 min; in data set [4] (UoBern01 at 1.00E-06 M, read-out: Mean / Half-Life), 46 min.

Turning to `CN1CC[C@]23c4c5ccc(O)c4O[C@H]2[C@@H](O)C=C[C@H]3[C@H]1C5` [morphine], the “Seconds on rota, 1h avg” value in data set [5] (Morphine, 1h post inj, avg of 3 trials per animal) is 12.0 s and 6.0 s and 5.0 s and 6.3 s and 10.7 s and 10.3 s. Further, the 1h avg/ baseline in data set [5] (Morphine, 1h post inj, per animal) was 0.218 and 0.137 and 0.1 and 0.2 and 0.164 and 0.0833. Also, the “Seconds on rota, 1h” value in data set [5] (Morphine, 1h post inj, single trials, individual animals) is 5 s and 14 s and 17 s and 9 s and 4 s and 2 s and 10 s and 8 s and 1 s and 12 s. Further, the “average of avg/baseline, 1hr post inj” value in data set [5] (Morphine, 1hr, group average) is on record as 0.150. The “Seconds on rota, 2h avg” value in data set [5] (Morphine, 2h post inj, avg of 3 trials per animal) is 34.0 s and 19.7 s and 12.3 s and 6.7 s and 21.7 s and 31.0 s. For the same compound, the 2h avg/ baseline in data set [5] (Morphine, 2h post inj, per animal) was 0.6 and 0.45 and 0.259 and 0.2 and 0.333 and 0.25. In addition, the “Seconds on rota, 2h” value in data set [5] (Morphine, 2h post inj, single trials, individual animals) was 30 Seconds and 27 Seconds and 45 Seconds and 7 Seconds and 18 Seconds and 34 Seconds and 2 Seconds and 17 Seconds and 8 Seconds and 6 Seconds (2×) and 24 Seconds and 22 Seconds and 19 Seconds and 26 Seconds. For the same compound, in data set [5] (Morphine, 2hr, group average), the “average of avg/baseline, 2hr post inj” value is given as 0.352. Besides, the “Seconds on rota, 3h avg” value in data set [5] (Morphine, 3h post inj, avg of 3 trials per animal) was 46.3 s and 37.7 s and 34.0 s and 18.7 s and 55.0 s. Moreover, in data set [5] (Morphine, 3h post inj, per animal), the 3h avg/ baseline was 0.842 and 0.9 and 0.7 and 0.566 and 0.444. Also, the “Seconds on rota, 3h” value in data set [5] (Morphine, 3h post inj, single trials, individual animals) is 39 s and 41 s and 59 s and 27 s and 29 s and 57 s and 21 s and 54 s and 11 s and 23 s and 22 s and 26 s and 65 s. In data set [5] (Morphine, 3hr, group average), the “average of avg/baseline, 3hr post inj” value was determined as 0.690. For the same compound, the “Seconds on rota, 5h avg” value in data set [5] (Morphine, 5h post inj, avg of 3 trials per animal) was 48.7 s and 52.3 s and 48.0 s and 81.7 s and 84.3 s. In addition, in data set [5] (Morphine, 5h post inj, per animal), the 5h avg/ baseline was 0.9 and 1.1 and 1.5 and 1.3 and 0.7. Further, the “Seconds on rota, 5h” value in data set [5] (Morphine, 5h post inj, single trials, individual animals) is 24 s and 57 s and 65 s and 31 s and 60 s and 55 s and 19 s and 73 s and 38 s and 51 s and 67 s and 81 s and 97 s and 88 s and 100 s. Further, in data set [5] (Morphine, 5hr, group average), the “average of avg/baseline, 5hr post inj” value is given as 1.081. Besides, in data set [5] (morphine 15 mg kg^−1 SC), the rotarod performance result was “caused sedation and motor impairment”.

The values above are taken from publication PMC9293909 (Nature Communications, 2022).
